Paper PMC5218480 (PLoS ONE, 2017)

Test system: MV-4-11 cells
Experiment: Gene expression microarray analysis (Affymetrix PrimeView) and GSEA
Format: cell-based, human
Set-up: RFU PODN (11730768_x_at) / Fold change /veh PODN (11730768_x_at) / RFU LINC00158 (11744669_a_at) / Fold change /veh LINC00158 (11744669_a_at) / RFU DUSP10 (11751237_a_at) / Fold change /veh DUSP10 (11751237_a_at) / RFU ID3 (11757404_x_at) / Fold change /veh ID3 (11757404_x_at) / RFU PLEKHG5 (11737974_s_at) / Fold change /veh PLEKHG5 (11737974_s_at) / RFU LRRC4B (11730491_at) / Fold change /veh LRRC4B (11730491_at) / RFU GIMAP4 (11747438_a_at) / Fold change /veh GIMAP4 (11747438_a_at) / RFU KRT8 (11758183_x_at) / Fold change /veh KRT8 (11758183_x_at) / RFU CNN1 (11734310_a_at) / Fold change /veh CNN1 (11734310_a_at) / RFU VPS37D (11726825_at) / Fold change /veh VPS37D (11726825_at) / RFU C10orf10 (11716522_x_at) / Fold change /veh C10orf10 (11716522_x_at) / RFU KIR2DL2 /// KIR2DL4 /// KIR2DL5A /// KIR2DL5B /// KIR2DS1 /// KIR2DS2 /// KIR2DS3 /// KIR2DS4 /// KIR3DL3 /// KIR3DL3 /// KIR3DS1 (11738374_at) / Fold change /veh KIR2DL2 /// KIR2DL4 /// KIR2DL5A /// KIR2DL5B /// KIR2DS1 /// KIR2DS2 /// KIR2DS3 /// KIR2DS4 /// KIR3DL3 /// KIR3DL3 /// KIR3DS1 (11738374_at) / RFU C1QL1 (11718748_at) / Fold change /veh C1QL1 (11718748_at) / RFU TMPRSS4 (11747572_a_at) / Fold change /veh TMPRSS4 (11747572_a_at) / RFU HAMP (11756126_x_at) / Fold change /veh HAMP (11756126_x_at) / RFU RNFT2 (11725882_a_at) / Fold change /veh RNFT2 (11725882_a_at) / RFU NR4A2 (11747474_a_at) / Fold change /veh NR4A2 (11747474_a_at) / RFU ABCC12 (11746883_a_at) / Fold change /veh ABCC12 (11746883_a_at) / RFU TMEM136 (11760407_x_at) / Fold change /veh TMEM136 (11760407_x_at) / RFU CLDN22 /// WWC2 (11732394_at) / Fold change /veh CLDN22 /// WWC2 (11732394_at) / RFU HLA-DPB1 (11760878_x_at) / Fold change /veh HLA-DPB1 (11760878_x_at) / RFU SPINT1 (11716480_a_at) / Fold change /veh SPINT1 (11716480_a_at) / RFU GAP43 (11754022_s_at) / Fold change /veh GAP43 (11754022_s_at) / RFU A4GNT (11735810_at) / Fold change /veh A4GNT (11735810_at) / RFU PRB3 (11715151_x_at) / Fold change /veh PRB3 (11715151_x_at) / RFU TUBB4B (11761932_at) / Fold change /veh TUBB4B (11761932_at) / RFU CAPN14 (11732068_a_at) / Fold change /veh CAPN14 (11732068_a_at) / RFU TMCC2 (11721928_a_at) / Fold change /veh TMCC2 (11721928_a_at) / RFU IRGQ (11745062_a_at) / Fold change /veh IRGQ (11745062_a_at) / RFU FAM174B (11720279_a_at) / Fold change /veh FAM174B (11720279_a_at) / RFU TMPRSS4 (11748680_a_at) / Fold change /veh TMPRSS4 (11748680_a_at) / RFU FAM212B (11763350_a_at) / Fold change /veh FAM212B (11763350_a_at) / RFU PLEKHG5 (11743358_a_at) / Fold change /veh PLEKHG5 (11743358_a_at) / RFU ZSCAN30 (11745921_a_at) / Fold change /veh ZSCAN30 (11745921_a_at) / RFU CMKLR1 (11741424_a_at) / Fold change /veh CMKLR1 (11741424_a_at) / RFU LOC101060620 /// MAPK8IP1 (11723275_at) / Fold change /veh LOC101060620 /// MAPK8IP1 (11723275_at) / RFU SPTSSB (11747773_x_at) / Fold change /veh SPTSSB (11747773_x_at) / RFU PRSS12 (11739890_at) / Fold change /veh PRSS12 (11739890_at) / RFU BIN1 (11741810_x_at) / Fold change /veh BIN1 (11741810_x_at) / RFU WNT11 (11732464_a_at) / Fold change /veh WNT11 (11732464_a_at) / RFU C10orf10 (11716521_a_at) / Fold change /veh C10orf10 (11716521_a_at) / RFU C5orf56 (11738089_at) / Fold change /veh C5orf56 (11738089_at) / RFU CYB561 (11721691_x_at) / Fold change /veh CYB561 (11721691_x_at) / RFU ANKRD19P (11752326_a_at) / Fold change /veh ANKRD19P (11752326_a_at) / RFU OR2T12 /// OR2T33 /// OR2T8 (11738714_s_at) / Fold change /veh OR2T12 /// OR2T33 /// OR2T8 (11738714_s_at) / RFU VCAN (11748164_a_at) / Fold change /veh VCAN (11748164_a_at) / RFU JSRP1 (11732532_at) / Fold change /veh JSRP1 (11732532_at) / RFU KRTAP10-11 (11738290_x_at) / Fold change /veh KRTAP10-11 (11738290_x_at) / RFU MYO3A (11730013_a_at) / Fold change /veh MYO3A (11730013_a_at) / RFU EBF3 (11725865_a_at) / Fold change /veh EBF3 (11725865_a_at) / RFU CAMK2N1 (11719241_x_at) / Fold change /veh CAMK2N1 (11719241_x_at) / RFU C5orf56 (11738088_a_at) / Fold change /veh C5orf56 (11738088_a_at) / RFU OLFML3 (11715873_a_at) / Fold change /veh OLFML3 (11715873_a_at) / RFU LOC100653217 /// NTM (11731650_a_at) / Fold change /veh LOC100653217 /// NTM (11731650_a_at) / RFU MAPK11 (11762145_a_at) / Fold change /veh MAPK11 (11762145_a_at) / RFU FIZ1 (11724087_x_at) / Fold change /veh FIZ1 (11724087_x_at) / RFU OASL (11726364_x_at) / Fold change /veh OASL (11726364_x_at) / RFU SOX15 (11748057_x_at) / Fold change /veh SOX15 (11748057_x_at) / RFU CD79A (11719716_a_at) / Fold change /veh CD79A (11719716_a_at) / RFU HIST1H1D (11736915_at) / Fold change /veh HIST1H1D (11736915_at) / RFU CASKIN2 (11723855_a_at) / Fold change /veh CASKIN2 (11723855_a_at) / RFU LOC730098 (11760151_x_at) / Fold change /veh LOC730098 (11760151_x_at) / RFU OR4N2 (11742367_at) / Fold change /veh OR4N2 (11742367_at) / RFU PRRT2 (11749266_a_at) / Fold change /veh PRRT2 (11749266_a_at) / RFU SNX32 (11753110_a_at) / Fold change /veh SNX32 (11753110_a_at) / RFU CDHR5 (11726645_a_at) / Fold change /veh CDHR5 (11726645_a_at) / RFU RCAN1 (11760418_a_at) / Fold change /veh RCAN1 (11760418_a_at) / RFU FAM167A (11723789_a_at) / Fold change /veh FAM167A (11723789_a_at) / RFU FAM26E (11764081_at) / Fold change /veh FAM26E (11764081_at) / RFU ISYNA1 (11749810_s_at) / Fold change /veh ISYNA1 (11749810_s_at) / RFU ACY1 (11761880_at) / Fold change /veh ACY1 (11761880_at) / RFU 11764098_at / Fold change /veh 11764098_at / RFU SAMD14 (11745864_x_at) / Fold change /veh SAMD14 (11745864_x_at) / RFU NPB (11741838_a_at) / Fold change /veh NPB (11741838_a_at) / RFU TMPRSS6 (11731388_a_at) / Fold change /veh TMPRSS6 (11731388_a_at) / RFU KRTAP10-2 (11738614_at) / Fold change /veh KRTAP10-2 (11738614_at) / RFU ARHGAP8 /// PRR5-ARHGAP8 (11727945_x_at) / Fold change /veh ARHGAP8 /// PRR5-ARHGAP8 (11727945_x_at) / RFU KRTAP5-7 /// NADSYN1 (11734609_at) / Fold change /veh KRTAP5-7 /// NADSYN1 (11734609_at) / RFU RASL12 (11751679_a_at) / Fold change /veh RASL12 (11751679_a_at) / RFU CDKN2B (11736163_a_at) / Fold change /veh CDKN2B (11736163_a_at) / RFU PRF1 (11729649_at) / Fold change /veh PRF1 (11729649_at) / RFU, ZNF638 /// ZNF638-IT1 / Fold change vs veh, ZNF638 /// ZNF638-IT1 / RFU, PANK3 / Fold change vs veh, PANK3 / RFU, SH3YL1 / Fold change vs veh, SH3YL1 / RFU, ZEB2 / Fold change vs veh, ZEB2 / RFU, NRIP1 / Fold change vs veh, NRIP1 / RFU, PTTG1IP / Fold change vs veh, PTTG1IP / RFU, CAPN2 / Fold change vs veh, CAPN2 / RFU, MED14 / Fold change vs veh, MED14 / RFU, SNORA58 / Fold change vs veh, SNORA58 / RFU, C1orf63 / Fold change vs veh, C1orf63 / RFU, LRRFIP1 / Fold change vs veh, LRRFIP1 / RFU, NDUFAF7 / Fold change vs veh, NDUFAF7 / RFU, SLC12A2 / Fold change vs veh, SLC12A2 / RFU, IBTK / Fold change vs veh, IBTK / RFU, ESF1 / Fold change vs veh, ESF1 / Fold change vs veh, TMEM50B / RFU, TAOK1 / Fold change vs veh, TAOK1 / RFU, ACBD3 / Fold change vs veh, ACBD3 / RFU, TMA16 / Fold change vs veh, TMA16 / RFU, RWDD3 / Fold change vs veh, RWDD3 / RFU, BCAT1 / Fold change vs veh, BCAT1 / RFU, EDEM3 / Fold change vs veh, EDEM3 / RFU, TMEM33 / Fold change vs veh, TMEM33 / RFU, WDR75 / Fold change vs veh, WDR75 / RFU, AHCTF1 / Fold change vs veh, AHCTF1 / RFU, TFRC / Fold change vs veh, TFRC / RFU, ZDHHC17 / Fold change vs veh, ZDHHC17 / RFU, NOM1 / Fold change vs veh, NOM1 / RFU, ARL8B / Fold change vs veh, ARL8B / RFU, ZBTB11 / Fold change vs veh, ZBTB11 / RFU, TAMM41 / Fold change vs veh, TAMM41 / RFU, KIAA1704 /// LOC100996395 / Fold change vs veh, KIAA1704 /// LOC100996395 / RFU, ING1 / Fold change vs veh, ING1 / RFU, TRMT61B / Fold change vs veh, TRMT61B / RFU, FUBP3 / Fold change vs veh, FUBP3 / RFU, TP53 / Fold change vs veh, TP53 / RFU, TNKS2 / Fold change vs veh, TNKS2 / RFU, ZFP14 / Fold change vs veh, ZFP14 / RFU, ACTR2 / Fold change vs veh, ACTR2 / RFU, PPP3R1 / Fold change vs veh, PPP3R1 / RFU, PIK3R1 / Fold change vs veh, PIK3R1 / RFU, HNRNPA1 / Fold change vs veh, HNRNPA1 / RFU, RNF170 / Fold change vs veh, RNF170 / RFU, ZNF28 / Fold change vs veh, ZNF28 / RFU, RNGTT / Fold change vs veh, RNGTT / RFU, OGT / Fold change vs veh, OGT / RFU, BRD1 / Fold change vs veh, BRD1 / RFU, MARS / Fold change vs veh, MARS / RFU, ZNF655 / Fold change vs veh, ZNF655 / RFU, FAHD1 / Fold change vs veh, FAHD1 / RFU, BDP1 / Fold change vs veh, BDP1 / RFU, LRRCC1 / Fold change vs veh, LRRCC1 / RFU, ARID1A / Fold change vs veh, ARID1A / RFU, ZNF146 / Fold change vs veh, ZNF146 / RFU, ZNF330 / Fold change vs veh, ZNF330 / RFU, GPN3 / Fold change vs veh, GPN3 / RFU, C9orf123 / Fold change vs veh, C9orf123 / RFU, N4BP2L2 / Fold change vs veh, N4BP2L2 / RFU, ARFIP1 / Fold change vs veh, ARFIP1 / RFU, FAM179B / Fold change vs veh, FAM179B / RFU, BCL10 / Fold change vs veh, BCL10 / RFU, UHRF1BP1L / Fold change vs veh, UHRF1BP1L / RFU, BET1 / Fold change vs veh, BET1 / RFU, CNOT2 / Fold change vs veh, CNOT2 / RFU, ZNF268 / Fold change vs veh, ZNF268 / Fold change vs veh, ZNF507 / RFU, DGCR2 / Fold change vs veh, DGCR2 / RFU, WDSUB1 / Fold change vs veh, WDSUB1 / Fold change vs veh, HSP90B1 /// MIR3652 / RFU, ADSS / Fold change vs veh, ADSS / RFU, GK / Fold change vs veh, GK / RFU, ZNF148 / Fold change vs veh, ZNF148 / RFU, TAF9 / Fold change vs veh, TAF9 / RFU, SLC1A5 / Fold change vs veh, SLC1A5 / RFU, SLMO2 / Fold change vs veh, SLMO2 / RFU, ABCC4 / Fold change vs veh, ABCC4 / RFU, LOC101060439 /// RAP1B / Fold change vs veh, LOC101060439 /// RAP1B / RFU, RFX7 / Fold change vs veh, RFX7 / RFU, GTPBP10 / Fold change vs veh, GTPBP10 / RFU, CNEP1R1 / Fold change vs veh, CNEP1R1 / RFU, BIVM-ERCC5 /// ERCC5 / Fold change vs veh, BIVM-ERCC5 /// ERCC5 / RFU, ILF3 / Fold change vs veh, ILF3 / RFU 11762660_at / Fold change /veh 11762660_at / RFU VCAN (11757783_s_at) / Fold change /veh VCAN (11757783_s_at) / RFU DDX43 (11728927_at) / Fold change /veh DDX43 (11728927_at) / RFU KRT8 (11758188_x_at) / Fold change /veh KRT8 (11758188_x_at) / RFU NKD1 (11759106_at) / Fold change /veh NKD1 (11759106_at) / RFU SRD5A1 (11742802_a_at) / Fold change /veh SRD5A1 (11742802_a_at) / RFU TPSAB1 /// TPSB2 (11721975_s_at) / Fold change /veh TPSAB1 /// TPSB2 (11721975_s_at) / RFU GSTM3 (11746129_a_at) / Fold change /veh GSTM3 (11746129_a_at) / RFU IL23R (11737362_x_at) / Fold change /veh IL23R (11737362_x_at) / RFU TMEM51 (11727254_a_at) / Fold change /veh TMEM51 (11727254_a_at) / RFU PIWIL2 (11732686_x_at) / Fold change /veh PIWIL2 (11732686_x_at) / RFU ORM1 (11744905_x_at) / Fold change /veh ORM1 (11744905_x_at) / RFU CCDC152 (11743942_at) / Fold change /veh CCDC152 (11743942_at) / RFU ECM1 (11717891_a_at) / Fold change /veh ECM1 (11717891_a_at) / RFU IL23R (11748794_a_at) / Fold change /veh IL23R (11748794_a_at) / RFU TNFAIP8L3 (11732012_x_at) / Fold change /veh TNFAIP8L3 (11732012_x_at) / RFU MBOAT4 (11741988_at) / Fold change /veh MBOAT4 (11741988_at) / RFU 11764193_at / Fold change /veh 11764193_at / RFU TMEM53 (11763286_at) / Fold change /veh TMEM53 (11763286_at) / RFU MAGEB2 (11727129_at) / Fold change /veh MAGEB2 (11727129_at) / RFU TMEM200A (11744735_a_at) / Fold change /veh TMEM200A (11744735_a_at) / RFU CCDC152 (11751479_a_at) / Fold change /veh CCDC152 (11751479_a_at) / RFU FAM211A (11726209_a_at) / Fold change /veh FAM211A (11726209_a_at) / RFU RGS16 (11746705_a_at) / Fold change /veh RGS16 (11746705_a_at) / RFU VCAN (11755009_s_at) / Fold change /veh VCAN (11755009_s_at) / RFU RHOB (11743442_s_at) / Fold change /veh RHOB (11743442_s_at) / RFU RGS16 (11720943_a_at) / Fold change /veh RGS16 (11720943_a_at) / RFU RGS16 (11720944_at) / Fold change /veh RGS16 (11720944_at) / RFU, VPS4B / Fold change vs veh, VPS4B / RFU, CREB1 / Fold change vs veh, CREB1 / RFU, DNAJC13 / Fold change vs veh, DNAJC13 / RFU, GNAQ / Fold change vs veh, GNAQ / RFU, CDK5R1 / Fold change vs veh, CDK5R1 / RFU, ZRANB3 / Fold change vs veh, ZRANB3 / RFU, CUL4A / Fold change vs veh, CUL4A / RFU, CCNY / Fold change vs veh, CCNY / RFU, UFL1 / Fold change vs veh, UFL1 / RFU, COG3 / Fold change vs veh, COG3 / RFU, DIAPH2 / Fold change vs veh, DIAPH2 / RFU, SKA2 / Fold change vs veh, SKA2 / RFU, AFF3 / Fold change vs veh, AFF3 / RFU, LMF1 / Fold change vs veh, LMF1 / RFU, IPO11 / Fold change vs veh, IPO11 / RFU, DFFB / Fold change vs veh, DFFB / RFU, FOXP1 / Fold change vs veh, FOXP1 / RFU, CARD8 / Fold change vs veh, CARD8 / RFU, STRN3 / Fold change vs veh, STRN3 / RFU, ADK / Fold change vs veh, ADK / RFU, RASSF2 / Fold change vs veh, RASSF2 / RFU, WIPF1 / Fold change vs veh, WIPF1 / RFU, LARP1B / Fold change vs veh, LARP1B / RFU, RASA1 / Fold change vs veh, RASA1 / RFU, RB1 / Fold change vs veh, RB1 / RFU, PPFIA1 / Fold change vs veh, PPFIA1 / RFU, MAT2A / Fold change vs veh, MAT2A / RFU, CCT5 / Fold change vs veh, CCT5 / RFU, WDR92 / Fold change vs veh, WDR92 / RFU, CUX1 / Fold change vs veh, CUX1 / RFU, TTC7A / Fold change vs veh, TTC7A / RFU, TMEM135 / Fold change vs veh, TMEM135 / RFU, DEPTOR / Fold change vs veh, DEPTOR / RFU, CPM / Fold change vs veh, CPM / RFU, DNAJB6 / Fold change vs veh, DNAJB6 / RFU, CACNA2D3 / Fold change vs veh, CACNA2D3 / RFU, DTX4 / Fold change vs veh, DTX4 / RFU, TFCP2 / Fold change vs veh, TFCP2 / RFU, GMCL1 /// GMCL1P1 / Fold change vs veh, GMCL1 /// GMCL1P1 / RFU, AEBP2 / Fold change vs veh, AEBP2 / RFU, SNHG1 /// SNORD22 /// SNORD25 /// SNORD26 /// SNORD27 /// SNORD28 /// SNORD29 /// SNORD31 / Fold change vs veh, SNHG1 /// SNORD22 /// SNORD25 /// SNORD26 /// SNORD27 /// SNORD28 /// SNORD29 /// SNORD31 / Fold change (Aza/veh), C12orf56 (ProbeSet 11735607_a_at) / Fold change (ACY-1035/veh), C12orf56 (ProbeSet 11735607_a_at) / Fold change (Aza/veh), FGFR1OP (ProbeSet 11751329_s_at) / Fold change (ACY-1035/veh), FGFR1OP (ProbeSet 11751329_s_at) / Fold change (Aza/veh), VPS36 (ProbeSet 11739960_a_at) / Fold change (ACY-1035/veh), VPS36 (ProbeSet 11739960_a_at) / RFU SYPL1 (11715823_x_at) / Fold change /veh SYPL1 (11715823_x_at) / RFU IGFBP7 (11715501_s_at) / Fold change /veh IGFBP7 (11715501_s_at) / RFU REEP3 (11722064_at) / Fold change /veh REEP3 (11722064_at) / RFU IGLL1 (11728026_x_at) / Fold change /veh IGLL1 (11728026_x_at): dose or concentration left out as unconfirmed
Details: MV-4-11 cells, 48 hours

Nc1ncn([C@@H]2O[C@H](CO)[C@@H](O)[C@H]2O)c(=O)n1 [azacitidine]
Fold change /veh VPS37D (11726825_at): 1.12
